# Publication PMC12135066, “Design and Preclinical Evaluation of Novel uPAR-Targeting Radiopeptides Modified with an Albumin-Binding Entity” (Molecular Pharmaceutics, 2025)
# Where two headings read alike, the source gives them in different places.
# What was measured:
# human uPAR [1] = biological target: T1, human uPAR (Homo sapiens, UniProt Q03405); experiment: uPAR-binding affinity (KD values), saturation experiments with HEK-uPAR cells; conditions: saturation binding on HEK-uPAR cells, on ice (4 °C) 1 h, 1–1600 nM radiopeptide, ± AE105 40 µM; γ-counter; nonlinear regression; average ± SD, n=3
# T1 construct: host or cells: HEK cells (HEK-uPAR)
# T1 sequence (Q03405 23-335): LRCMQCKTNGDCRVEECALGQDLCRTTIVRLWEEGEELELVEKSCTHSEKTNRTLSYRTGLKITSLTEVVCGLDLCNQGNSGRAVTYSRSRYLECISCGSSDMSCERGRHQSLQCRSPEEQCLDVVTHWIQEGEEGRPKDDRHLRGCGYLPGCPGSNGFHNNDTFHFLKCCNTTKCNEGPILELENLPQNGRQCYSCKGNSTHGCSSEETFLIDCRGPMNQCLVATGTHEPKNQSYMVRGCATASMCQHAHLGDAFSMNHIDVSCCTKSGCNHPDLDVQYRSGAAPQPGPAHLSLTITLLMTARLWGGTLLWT
# Experimental: To determine the uPAR-binding affinity of the radiopeptides, saturation experiments were performed using HEK-uPAR cells in 48-well plates (Supporting Information). The cells were incubated on ice for 1 h in the presence or absence of excess AE105 (final concentration of 40 μM) together with the respective radiopeptide at a concentration range of 1–1600 nM. After rinsing the cells with PBS, they were lysed with an aqueous NaOH solution (1 M, 600 μL), transferred to radioimmunoassay tubes, and measured in a γ-counter (1480 Wizard, PerkinElmer). The K D values were determined by plotting the specific binding (values of samples incubated without AE105 minus the values of samples incubated with AE105) against the molar concentration of the added peptide. A nonlinear regression analysis was performed using GraphPad Prism software (version 8.3.1). The results were expressed as average ± SD of n = 3 independently performed experiments. […]
# 7. Determination of uPAR-Binding Affinity (KD Values)
# Purpose: The uPAR-binding affinity of the radiopeptides were determined to investigate the impact of structural changes on the receptor binding.
# Methods: HEK-uPAR cells were seeded in poly-D-lysine-coated 48-well plates (0.25 × 10 6 in 0.5 mL per well) using DMEM cell culture medium with supplements. The cells were incubated at 37 °C and 5% CO2 overnight to allow adhesion and growth. After removing the supernatant, the well plates with HEK-uPAR cells were placed on ice to prevent internalization of the radiopeptides. The cells were rinsed with cold PBS (0.5 mL, pH 7.4) followed by the addition of DMEM cell culture medium without supplements (450 µL/well) in the presence or absence of AE105 ( final concentration 40 µM) as a receptor-blocking agent. The radiopeptides (5 MBq/nmol) were diluted in PBS to obtain peptide concentrations ranging from 10 ‒16000 nM. From each dilution, 50 µL were added to each well to obtain final peptide concentrations of 1 nM to 1600 nM. The cells were incubated at 4 °C for 1 h before rinsing twice with PBS (0.5 mL, pH 7.4). The cells were lysed using an aqueous NaOH solution (1 M, 600 µL) and the lysates were transferred to RIA tubes for counting the activity in a γ-counter (1480 Wizard, PerkinElmer) . The KD values were determined by plotting specific binding (total binding minus unspecific binding) against the molar concentration of the added radiopeptide using GraphPad Prism (version 8.3.1). the results were then expressed as average K D values ± SD of n = 3 independent […]
# Results: The results are reported in the main article.
# [2] = test system: HEK-uPAR xenograft-bearing nude mice; conditions: mouse, in vivo
# Experimental: (§1) All applicable international, national, and/or institutional guidelines for the care and use of laboratory animals were followed, and the herein reported experiments were carried out according to the guidelines of the Swiss Regulations for Animal Welfare. The preclinical studies were ethically approved by the Cantonal Committee of Animal Experimentation and permitted by the responsible cantonal authorities (License No. 75721). Five-week-old female CD1/nude (Crl:CD1-Foxn ^ nu ) and female immunocompetent FVB (FVB/NCrl) mice were obtained from Charles River Laboratories (Sulzfeld, Germany). All mice were acclimatized for at least 7 days, receiving standard rodent chow ad libitum before being included in the reported studies. The CD1/nude mice were subcutaneously inoculated with HEK-uPAR cells (7 × 10^6 cells in 100 μL PBS) on the right shoulder. […] Typically, it took 3–11 weeks to reach xenograft volumes of 40–600 mm^3 at the time of testing the tissue distribution of the radiopeptides. The immunocompetent FVB mice were used for testing the in vivo stability of the radiopeptides.
# (§2) The mice were injected with the radiopeptides (5 MBq, 0.5 nmol, 100 μL) in saline containing 0.05% BSA and sacrificed at 4 and 24 h after injection of the radiopeptides. Selected tissues and organs were collected, weighed, and measured with the γ-counter (1480 Wizard, PerkinElmer). […] A p-value of <0.05 was considered a statistically significant difference (GraphPad Prism software, version 8.3.1).
# (§3) Decay-corrected data is shown as average ± SD of n = 3 animals of % injected activity per gram (IA/g) tissue.
# in vivo = conditions: female, mouse, total radioactivity
# Experimental: as §1, §2, §3
# in vitro [3] = conditions: mouse, plasma
# Experimental: (§4) The radiopeptides (50 MBq/nmol) stabilized with L-ascorbic acid were diluted in mouse and human blood plasma and incubated at 37 °C. Aliquots were taken after 1, 4, and 24 h and analyzed using reversed-phase thin-layer chromatography (TLC) (Supporting Information).
# (§5) aProduct peak expressed as percentage of the sum of integrated peak areas of the entire chromatogram relative to
# (§6) the value obtained immediately after labeling (set as 100%), average ± standard deviation (SD) (n=3).
# (§7) Stability of the Radiopeptides in Mouse and Human Blood Plasma
# (§8) Purpose: The stability of the radiopeptides was assessed in mouse and human blood plasma as an
# indication for their in vivo stability.
# (§9) Methods: The radiopeptides (50 MBq/nmol) stabilized with L-ascorbic acid were diluted in mouse
# (§10) blood plasma (Lot: 32321, Rockland Immunochemicals Inc., U.S.A.) or in human blood plasma
# (§11) (Stiftung Blutspende SRK Aargau -Solothurn, Switzerland) at a concentration of 10 MBq/200 µL and
# (§12) incubated at 37 °C over a 24 h time period. Control samples were prepared by diluting the radiopeptides
# (§13) in saline at the same activity concentration. Aliquots of each dilution were taken after 1 h, 4 h, and 24 h
# (§14) (2 µL, ~100 kBq) and investigated employing thin layer chromatography (TLC) methods on reversed-
# (§15) phase TLC plates (MERCK Analytical Chromatography, TLC Silica gel 60 RP -18 F254s) as stationary
# (§16) phase and a 3/7 (v/v) mixture of acetonitrile /citrate buffer (0.1 M, pH 5.5) as mobile phase. A dilution
# (§17) of [177Lu]LuCl3/HCl 0.04 M (10 MBq/200 µL) was added on each TLC plate. The developed and dried
# (§18) TLC plates were exposed to a phosphor screen (Super resolution screen PSR10450013, PerkinElmer)
# (§19) for 1 min. The screen was read with a Cyclone Plus phosphor imager (PerkinElmer) and the peak
# (§20) quantification was performed using OptiQuant Software (version 5.0).
# in vitro [4] = conditions: human, plasma
# Experimental: as §4, §5, §6, §7, §8
# indication for their in vivo stability.
# as §9, §10, §11, §12, §13, §14, §15, §16, §17, §18, §19, §20
# physchem = conditions: pH 7.4
# Experimental: The radiopeptides diluted in phosphate-buffered saline (PBS) pH 7.4 (25 μL, ∼0.5 MBq, 0.01 nmol) were added to a mixture of PBS pH 7.4 (1475 μL) and n-octanol (1500 μL). The vials were vortexed vigorously for 1 min, followed by centrifugation (560 rcf, 6 min) for phase separation. Aliquots were taken from each phase and measured in a γ-counter (1480 Wizard, PerkinElmer). The distribution coefficients were calculated as the logarithmic value of the ratio of counts per minute (cpm) measured in the n-octanol phase relative to the cpm measured in the PBS phase.
# Methods: The logD value of all radiopeptides was determined in a mixture of n-octanol and phosphate
# buffered saline (PBS) pH 7.4 using phase separation followed by liquid-liquid extraction.
# polystyrene radioimmunoassay (RIA) tubes were prepared for each radiopeptide with 1.5 mL n-octanol
# and 1.475 mL PBS pH 7.4. The RIA tubes were rigorously vortexed and subsequently let to stand so
# that the phase separation could take place. The radiopeptides (50 MBq/nmol) were diluted with PBS
# pH 7.4 to obtain an activity concentration of 10 MBq/0.5 mL. A volume of 25 μL of these solutions
# was added to each RIA tube (25 µL, ~0.5 MBq, 0.01 nmol) followed by vortexing for 1 min.
# separation was achieved by centrifugation at 560 rcf for 6 min. The activity in the n-octanol and PBS
# phase, respectively, was measured in a γ-counter (Wallac Wizard 1480, PerkinElmer).
# coefficients were calculated as the logarithm of the ratio of counts per minute (cpm) measured in the n-
# octanol phase relative to the cpm measured in the PBS pH 7.4 phase.
# as described above three independent times for each radiopeptide.
# human uPAR [5] = biological target: T1, human uPAR; conditions: reported value; ref not printed (citation marks lost in b4); read-out: binding affinity to human uPAR (KD); cited from earlier work
# Experimental: The expression pattern of uPAR makes it a relevant tumor-associated marker for targeting with diagnostic and therapeutic radiopharmaceuticals. Previously, a synthetic uPAR-binding nonapeptide, referred to as AE105, was identified using phage display methodologies and affinity maturation techniques. , The reported strong binding affinity to human uPAR (K D = 0.4 nM) made AE105 an interesting candidate for the development of nuclear imaging agents and radiotherapeutics. , AE105 was conjugated with various macrocyclic chelators to enable the coordination of copper-64, gallium-68, and lutetium-177 ...
# [6] = CD1/nude (Crl:CD1-Foxn nu), 0.5 nmol, Blood
# [7] = CD1/nude (Crl:CD1-Foxn nu), 0.5 nmol, HEK-uPAR xgft
# [8] = CD1/nude, 5 MBq (0.5 nmol), Blood
# [9] = CD1/nude, 5 MBq (0.5 nmol), Bone
# [10] = CD1/nude, 5 MBq (0.5 nmol), Brain
# [11] = CD1/nude, 5 MBq (0.5 nmol), Heart
# [12] = CD1/nude, 5 MBq (0.5 nmol), Intestines
# [13] = CD1/nude, 5 MBq (0.5 nmol), Kidneys
# [14] = CD1/nude, 5 MBq (0.5 nmol), Liver
# [15] = CD1/nude, 5 MBq (0.5 nmol), Lung
# [16] = CD1/nude, 5 MBq (0.5 nmol), Muscle
# [17] = CD1/nude, 5 MBq (0.5 nmol), Pancreas
# [18] = CD1/nude, 5 MBq (0.5 nmol), Salivary glands
# [19] = CD1/nude, 5 MBq (0.5 nmol), Spleen
# [20] = CD1/nude, 5 MBq (0.5 nmol), Stomach
# [21] = CD1/nude, 5 MBq (0.5 nmol), HEK-uPAR xgft
Kd (human uPAR [1]),tissue uptake at 24 h (in vivo; [6]),tissue uptake at 4 h (in vivo; [8]),tissue uptake at 4 h (in vivo; [9]),tissue uptake at 24 h (in vivo; [9]),tissue uptake at 4 h (in vivo; [10]),tissue uptake at 24 h (in vivo; [10]),tissue uptake at 4 h (in vivo; [11]),tissue uptake at 24 h (in vivo; [11]),tissue uptake at 4 h (in vivo; [12]),tissue uptake at 24 h (in vivo; [12]),tissue uptake at 4 h (in vivo; [13]),tissue uptake at 24 h (in vivo; [13]),tissue uptake at 4 h (in vivo; [14]),tissue uptake at 24 h (in vivo; [14]),tissue uptake at 4 h (in vivo; [15]),tissue uptake at 24 h (in vivo; [15]),tissue uptake at 4 h (in vivo; [16]),tissue uptake at 24 h (in vivo; [16]),tissue uptake at 4 h (in vivo; [17]),Molecule,further results
32 ± 12 nM,6 ± 0.5 %ID/g,16 ± 1 %ID/g,1.8 ± 0.2 %ID/g,1.2 ± 0.1 %ID/g,0.34 ± 0.03 %ID/g,0.13 ± 0.02 %ID/g,4.8 ± 0.2 %ID/g,2.5 ± 0.3 %ID/g,1.8 ± 0.2 %ID/g,0.84 ± 0.13 %ID/g,5.5 ± 0.2 %ID/g,3.6 ± 0.2 %ID/g,2.8 ± 0.3 %ID/g,1.6 ± 0.2 %ID/g,7.2 ± 0.3 %ID/g,4 ± 0.2 %ID/g,1.4 ± 0.1 %ID/g,0.9 ± 0.06 %ID/g,1.8 ± 0.1 %ID/g,"CC(C)C[C@H](NC(=O)[C@H](Cc1ccc(O)cc1)NC(=O)[C@@H](CCCNC(=N)N)NC(=O)[C@@H](CO)NC(=O)[C@H](Cc1ccccc1)NC(=O)[C@H](CC1CCCCC1)NC(=O)[C@H](CC(=O)O)NC(=O)[C@H](CCCCNC(=O)CCOCCOCCOCCOCCNC(=O)CCCc1ccc(I)cc1)NC(=O)CN1CCN(CC(=O)O)CCN(CC(=O)O)CCN(CC(=O)O)CC1)C(=O)N[C@@H](Cc1c[nH]c2ccccc12)C(=O)N[C@@H](CO)C(N)=O [[^177Lu]Lu-uPAR-02, metal not drawn]","fold higher activity retention in the HEK-uPAR xenograft than [177Lu]Lu-DOTA-AE105 [2]: over 10 fold; fold higher xenograft-to-kidney ratio than [177Lu]Lu-DOTA-AE105 [2]: > 3 fold; tissue uptake at 4 h (in vivo; [7]): 11 ± 2 %ID/g; tissue uptake at 24 h (in vivo; [7]): 10 ± 3 %ID/g; tissue uptake at 24 h (in vivo; [17]): 0.92 ± 0.06 %ID/g; tissue uptake at 4 h (in vivo; [18]): 3.2 ± 0.4 %ID/g; tissue uptake at 24 h (in vivo; [18]): 1.8 ± 0.2 %ID/g; tissue uptake at 4 h (in vivo; [19]): 2.2 ± 0.1 %ID/g; tissue uptake at 24 h (in vivo; [19]): 2 ± 0.2 %ID/g; tissue uptake at 4 h (in vivo; [20]): 1.6 ± 0.3 %ID/g; tissue uptake at 24 h (in vivo; [20]): 0.69 ± 0.03 %ID/g; remaining at 1 h, 10 MBq/200 µL (in vitro [3]): 100 ± 1%; remaining at 4 h, 10 MBq/200 µL (in vitro [3]): 98 ± 1%; remaining at 24 h, 10 MBq/200 µL (in vitro [3]): 98 ± 2%; remaining at 1 h, 10 MBq/200 µL (in vitro [4]): 100 ± 1%; remaining at 4 h, 10 MBq/200 µL (in vitro [4]): 99 ± 1%; remaining at 24 h, 10 MBq/200 µL (in vitro [4]): 99 ± 1%; logD (physchem): 0.25 ± 0.02"
56 ± 8 nM,13 ± 1 %ID/g,15 ± 1 %ID/g,1.5 ± 0.3 %ID/g,1.8 ± 0.3 %ID/g,0.31 ± 0.05 %ID/g,0.3 ± 0.01 %ID/g,4.8 ± 0.5 %ID/g,5.2 ± 0.1 %ID/g,1.8 ± 0.1 %ID/g,2 ± 0.1 %ID/g,4.1 ± 0.3 %ID/g,4.7 ± 0.2 %ID/g,3.1 ± 0.4 %ID/g,3.2 ± 0.2 %ID/g,7.5 ± 0.5 %ID/g,7.7 ± 0.7 %ID/g,1.3 ± 0.1 %ID/g,1.5 ± 0.1 %ID/g,1.7 ± 0.1 %ID/g,"CC(C)C[C@H](NC(=O)[C@H](Cc1ccc(O)cc1)NC(=O)[C@@H](CCCNC(=N)N)NC(=O)[C@@H](CO)NC(=O)[C@H](Cc1ccccc1)NC(=O)[C@H](CC1CCCCC1)NC(=O)[C@H](CC(=O)O)NC(=O)[C@H](CCCCNC(=O)CCOCCOCCOCCOCCNC(=O)c1ccc(CNC(=O)CCCc2ccc(I)cc2)cc1)NC(=O)CN1CCN(CC(=O)O)CCN(CC(=O)O)CCN(CC(=O)O)CC1)C(=O)N[C@@H](Cc1c[nH]c2ccccc12)C(=O)N[C@@H](CO)C(N)=O [[^177Lu]Lu-uPAR-03, metal not drawn]","tissue uptake at 4 h (in vivo; [21]): 4 ± 0.3 %ID/g; tissue uptake at 24 h (in vivo; [21]): 7.5 ± 0.2 %ID/g; tissue uptake at 24 h (in vivo; [17]): 1.9 ± 0.2 %ID/g; tissue uptake at 4 h (in vivo; [18]): 3.4 ± 0.4 %ID/g; tissue uptake at 24 h (in vivo; [18]): 3.6 ± 0.2 %ID/g; tissue uptake at 4 h (in vivo; [19]): 2.2 ± 0.2 %ID/g; tissue uptake at 24 h (in vivo; [19]): 3 ± 0.2 %ID/g; tissue uptake at 4 h (in vivo; [20]): 1.6 ± 0.1 %ID/g; tissue uptake at 24 h (in vivo; [20]): 1.8 ± 0.1 %ID/g; remaining at 1 h, 10 MBq/200 µL (in vitro [3]): 100%; remaining at 4 h, 10 MBq/200 µL (in vitro [3]): 99 ± 1%; remaining at 24 h, 10 MBq/200 µL (in vitro [3]): 98 ± 1%; remaining at 1 h, 10 MBq/200 µL (in vitro [4]): 100 ± 1%; remaining at 4 h, 10 MBq/200 µL (in vitro [4]): 99 ± 1%; remaining at 24 h, 10 MBq/200 µL (in vitro [4]): 99 ± 2%; logD (physchem): 0.37 ± 0.14"
–,–,–,–,–,–,–,–,–,–,–,–,–,–,–,–,–,–,–,–,"Asp-Cha-Phe-ser-arg-Tyr-Leu-Trp-Ser (DAFSRYLWS; Printed as Asp-Cha-Phe-ser-arg-Tyr-Leu-Trp-Ser. Residue 2 is Cha (L-beta-cyclohexylalanine, written as parent Ala, as in PDB 1YWH entity 2); D-Ser4; D-Arg5; Linear; C-terminal form (acid or amide) not) [AE105]",Kd (human uPAR [5]): 0.4 nM
